Series [1] in a line: activity coefficient (dimensionless); of the first substance listed, at infinite dilution; xn = mol fraction of the nth substance listed. The conditions noted are these: 101 kPa, Liquid, dilutor technique, x1 = 0.
For series [2] the following is noted: Liquid, Closed cell (Static) method.

We go through 7 compounds from the NIST ThermoML archive (doi:10.1016/j.fluid.2010.03.027).

Numbers after ± are expanded uncertainties.

In general, vapor or sublimation pressure refers to the pressure of vapour in equilibrium with the condensed phase.

On to `CSC` [2-thiapropane] + CCCCCC, for which the activity coefficient in series [1] (288.15 K) stood at 2.16 ± 0.9; in series [1] (293.15 K), 2.04 ± 0.78; in series [1] (298.15 K), 1.95 ± 0.68; in series [1] (303.15 K), 1.91 ± 0.6.

As for `C1CCSC1` [tetrahydrothiophene], the “vapor or sublimation pressure” value is listed as 2.1 ± 1.2 kPa in series [2] (293.97 K) and 5.9 ± 1.2 kPa in series [2] (312.87 K).

Turning to `CSC` [2-thiapropane] + C=CCCCC, the activity coefficient in series [1] (288.15 K) came out at 1.77 ± 0.68; in series [1] (298.15 K), 1.71 ± 0.52; in series [1] (303.15 K), 1.64 ± 0.46.

`CSC` [2-thiapropane] + C=C(C)CC(C)(C)C: the activity coefficient in series [1] (288.15 K) turned out to be 1.5 ± 0.66; in series [1] (298.15 K) it was 1.45 ± 0.52; in series [1] (303.15 K), 1.4 ± 0.44.

Regarding `CSC` [2-thiapropane], the results for the “vapor or sublimation pressure” value in series [2] (293.94 K) and in series [2] (312.86 K) were 53.2 ± 1.2 kPa and 108.8 ± 1.2 kPa, respectively.

On to `CCC` [propane], for which the “vapor or sublimation pressure” value was 852.6 ± 2.3 kPa in series [2] (293.94 K), 853.1 ± 2.3 kPa in series [2] (293.97 K), 1358.5 ± 2.8 kPa in series [2] (312.85 K) and 1361.3 ± 2.8 kPa in series [2] (312.87 K).

For the compound `CSC` [2-thiapropane] + CC(C)CC(C)(C)C, the values for the activity coefficient in series [1] (288.15 K), in series [1] (298.15 K) and in series [1] (303.15 K) were 1.77 ± 0.7, 1.72 ± 0.54 and 1.67 ± 0.3, respectively.
